Test results from ChEMBL document CHEMBL1201862, “PubChem BioAssay data set” (2004).
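Compound exposure: 48 hours, 5 concentrations, 96-well plates. Abbreviation: GI50, concentration required for 50% inhibition of growth.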 The source made the active and inactive calls. Rule as the data show it: active = GI50 up to about 1.1 µM and inactive = higher.

Assays:
Assay in all cases: NCI anticancer screen, dose series, 48 h
[1] = system: NCI/ADR-RES
[2] = system: MOLT-4
[3] = system: UACC-62
[4] = system: SK-OV-3
[5] = system: OVCAR-8
[6] = system: 786-0
[7] = system: MDA-MB-231
[8] = system: UO-31
[9] = system: TK-10
[10] = system: SNB-75
[11] = system: DU-145
[12] = system: COLO 205
[13] = system: NCI-H460
[14] = system: Hs-578T
[15] = system: BT-549
[16] = system: MCF7
[17] = system: SK-MEL-28
[18] = system: NCI-H226
[19] = system: T47D
[20] = system: M14
[21] = system: CAKI-1
[22] = system: SW-620
[23] = system: CCRF-CEM
[24] = system: SF-295
[25] = system: SF-539
[26] = system: HOP-92
[27] = system: RXF 393
[28] = system: SK-MEL-2
[29] = system: SR
[30] = system: HCC 2998
[31] = system: U-251
[32] = system: NCI-H23
[33] = system: EKVX
[34] = system: LOX IMVI
[35] = system: PC-3
[36] = system: HOP-62
[37] = system: IGROV-1
[38] = system: ACHN
[39] = system: OVCAR-4
[40] = system: HT-29
[41] = system: UACC-257
[42] = system: A498
[43] = system: HCT-116
[44] = system: SK-MEL-5
[45] = system: SNB-19
[46] = system: SF-268
[47] = system: HCT-15
[48] = system: HL-60
[49] = system: KM12
[50] = system: MDA-MB-435
[51] = system: RPMI-8226
[52] = system: K562

CC(=O)Nc1ccc(-c2nc3ccccc3s2)cc1C
GI50 [1]: 42.2 µM (inactive)
GI50 [2]: 24.9 µM (inactive)
GI50 [3]: 47.1 µM (inactive)
GI50 [4]: 32.6 µM (inactive)
GI50 [5]: 53.1 µM (inactive)
GI50 [6]: 52.6 µM (inactive)
GI50 [7]: 20 µM (inactive)
GI50 [8]: 17.9 µM (inactive)
GI50 [9]: 72.9 µM (inactive)
GI50 [10]: 38.5 µM (inactive)
GI50 [11]: 22.2 µM (inactive)
GI50 [12]: 45 µM (inactive)
GI50 [13]: 78.2 µM (inactive)
GI50 [14]: 45.4 µM (inactive)
GI50 [15]: 27.5 µM (inactive)
GI50 [16]: 33.5 µM (inactive)
GI50 [17]: 99.1 µM (inactive)
GI50 [18]: 26.9 µM (inactive)
GI50 [19]: 12.2 µM (inactive)
GI50 [20]: 68.7 µM (inactive)
GI50 [21]: 18.2 µM (inactive)
GI50 [22]: > 100 µM (inactive)
GI50 [23]: > 100 µM (inactive)
GI50 [24]: 40 µM (inactive)
GI50 [25]: 50.8 µM (inactive)
GI50 [26]: > 100 µM (inactive)
GI50 [27]: 44.7 µM (inactive)
GI50 [28]: 37.1 µM (inactive)
GI50 [29]: 27.7 µM (inactive)
GI50 [30]: 42.9 µM (inactive)
GI50 [31]: 71.6 µM (inactive)
GI50 [32]: 75.5 µM (inactive)
GI50 [33]: 25.1 µM (inactive)
GI50 [34]: 36.5 µM (inactive)
GI50 [35]: 29 µM (inactive)
GI50 [36]: 40.6 µM (inactive)
GI50 [37]: 38.6 µM (inactive)
GI50 [38]: 44.4 µM (inactive)
GI50 [39]: 42.5 µM (inactive)
GI50 [40]: > 100 µM (inactive)
GI50 [41]: 69.7 µM (inactive)
GI50 [42]: 2.9 µM (inactive)
GI50 [43]: 78.7 µM (inactive)
GI50 [44]: 58.9 µM (inactive)
GI50 [45]: 36.9 µM (inactive)
GI50 [46]: 64.4 µM (inactive)
GI50 [47]: > 100 µM
GI50 [48]: 29.9 µM (inactive)
GI50 [49]: 51.2 µM (inactive)
GI50 [50]: > 100 µM (inactive)
GI50 [51]: 55.2 µM (inactive)

CC1=NN(c2nc(N)nc(COc3ccc(N)cc3)n2)C(C)(C)C1
GI50 [1]: > 100 µM (inactive)
GI50 [2]: > 100 µM (inactive)
GI50 [3]: > 100 µM (inactive)
GI50 [4]: > 100 µM (inactive)
GI50 [52]: > 100 µM (inactive)
GI50 [5]: > 100 µM (inactive)
GI50 [6]: > 100 µM (inactive)
GI50 [7]: > 100 µM (inactive)
GI50 [8]: > 100 µM (inactive)
GI50 [9]: > 100 µM (inactive)
GI50 [10]: > 100 µM (inactive)
GI50 [11]: > 100 µM (inactive)
GI50 [12]: > 100 µM (inactive)
GI50 [13]: > 100 µM (inactive)
GI50 [14]: > 100 µM (inactive)
GI50 [15]: > 100 µM (inactive)
GI50 [16]: > 100 µM (inactive)
GI50 [17]: > 100 µM (inactive)
GI50 [18]: > 100 µM (inactive)
GI50 [19]: > 100 µM (inactive)
GI50 [20]: > 100 µM (inactive)
GI50 [21]: > 100 µM (inactive)
GI50 [22]: > 100 µM (inactive)
GI50 [23]: > 100 µM (inactive)
GI50 [24]: > 100 µM (inactive)
GI50 [25]: > 100 µM (inactive)
GI50 [26]: > 100 µM (inactive)
GI50 [27]: > 100 µM (inactive)
GI50 [28]: > 100 µM (inactive)
GI50 [29]: > 100 µM (inactive)
GI50 [30]: > 100 µM (inactive)
GI50 [31]: > 100 µM (inactive)
GI50 [32]: > 100 µM (inactive)
GI50 [33]: > 100 µM (inactive)
GI50 [34]: > 100 µM (inactive)
GI50 [35]: > 100 µM (inactive)
GI50 [36]: > 100 µM (inactive)
GI50 [37]: > 100 µM (inactive)
GI50 [38]: > 100 µM (inactive)
GI50 [39]: > 100 µM (inactive)
GI50 [40]: > 100 µM (inactive)
GI50 [41]: > 100 µM (inactive)
GI50 [42]: > 100 µM (inactive)
GI50 [43]: > 100 µM (inactive)
GI50 [44]: > 100 µM (inactive)
GI50 [45]: > 100 µM (inactive)
GI50 [46]: > 100 µM (inactive)
GI50 [47]: > 100 µM
GI50 [48]: > 100 µM (inactive)
GI50 [49]: > 100 µM (inactive)
GI50 [50]: > 100 µM (inactive)
GI50 [51]: > 100 µM (inactive)
